For 16 compounds, TGI and GI50 results are on record in PubChem BioAssay (NCI).

Broadly, the TGI is the concentration giving total growth inhibition. A high value points to lower sensitivity of the cells. Broadly, the GI50 is the concentration that inhibits growth by half.

“And” between values parts separate entries of the source, which are not always exact repeats. Equal values may be shown once.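 Tested at 5 concentrations; 48 h exposure; 96-well plates; endpoints linearly interpolated, else capped at highest concentration. GI50 marks 50% less growth. TGI denotes the concentration required for complete inhibition of growth.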

Test systems include HCC-2998 colon; SK-OV-3 ovarian; MOLT-4 leukemia; NCI-H460 lung; CAKI-1 renal; SF-539 CNS; HCT-116 colon; U251 CNS.
Common to all, as to test: DTP human tumour cell line panel, 48 h

On to `CCCC1N2CCCCC2[C@@H]2c3[nH]c4ccccc4c3CCN12` (some centres undefined), for which the TGI in the assay on HCC-2998 colon, in the assay with SK-OV-3 ovarian, with MOLT-4 leukemia, in the assay with NCI-H460 lung, in the assay on CAKI-1 renal and with SF-539 CNS was more than 100 µM throughout. For the same compound, the TGI with HCT-116 colon and with U251 CNS was more than 100 µM throughout.

On to `CCCn1c(=S)sc2c1nc(C)n1c(Nc3ccccc3)nnc21`, for which the GI50 was 3.27 µM in the assay on HCC-2998 colon; 16.8 µM with SK-OV-3 ovarian; 3.02 µM with MOLT-4 leukemia; 3.5 µM in the assay with NCI-H460 lung; 6.05 µM in the assay on CAKI-1 renal; 7.45 µM with SF-539 CNS. In addition, the values for the GI50 in the assay with HCT-116 colon and in the assay with U251 CNS were 4.43 µM and 4.02 µM, respectively. For the same compound, the TGI in the assay on HCC-2998 colon worked out at 12.2 µM; in the assay with SK-OV-3 ovarian, 89.1 µM; in the assay with MOLT-4 leukemia, 48.3 µM; in the assay with NCI-H460 lung it was 13.8 µM; in the assay on CAKI-1 renal, 62.4 µM; in the assay on SF-539 CNS, 30.3 µM. Also, the results for the TGI in the assay on HCT-116 colon and with U251 CNS were 17.7 µM and more than 100 µM, respectively.

In the case of `CC[C@@]1(c2ccccc2)C2=C(CC(C)(C)CC2=O)Nc2[nH]ncc21`, the GI50 is more than 100 µM in the assay with HCC-2998 colon; more than 100 µM in the assay with SK-OV-3 ovarian; more than 100 µM with MOLT-4 leukemia; more than 100 µM with NCI-H460 lung; 51.9 µM with CAKI-1 renal; more than 100 µM in the assay on SF-539 CNS. The GI50 in the assay on HCT-116 colon and with U251 CNS was more than 100 µM each time. The TGI in the assay on HCC-2998 colon, in the assay with SK-OV-3 ovarian, in the assay with MOLT-4 leukemia, with NCI-H460 lung, in the assay with CAKI-1 renal and in the assay with SF-539 CNS was more than 100 µM throughout. For the same compound, the TGI in the assay with HCT-116 colon and in the assay with U251 CNS was more than 100 µM in each case.

With `CCCCCCCC(=O)OCC/C=C/C1OC1C1OC(=O)/C=C\C=C\c2nc(oc2C)/C=C(/C)CCC2OC2C1OC(=O)NC(C)=O` (centres undefined), the GI50 in the assay with HCC-2998 colon was 0.0208 µM; with SK-OV-3 ovarian it was 0.0643 µM; in the assay on MOLT-4 leukemia it was 0.047 µM; with NCI-H460 lung, 0.0192 µM; in the assay with CAKI-1 renal, 0.0664 µM; in the assay on SF-539 CNS, 0.0396 µM. The GI50 in the assay on HCT-116 colon is 0.00922 µM; with U251 CNS, 0.0497 µM. The TGI stood at 0.0739 µM in the assay on HCC-2998 colon; 1.33 µM in the assay with SK-OV-3 ovarian; 1.81 µM with MOLT-4 leukemia; 0.495 µM with NCI-H460 lung; 1.56 µM in the assay with CAKI-1 renal; 0.0819 µM in the assay on SF-539 CNS. Besides, the TGI amounted to 0.368 µM with HCT-116 colon and 3.11 µM in the assay on U251 CNS.

For the compound `CCCCCCCCn1ccc2cc(NC(=O)Cn3cc(CN4CCCC4)nn3)ccc21`, the GI50 with HCC-2998 colon was 1.73 µM; in the assay on SK-OV-3 ovarian it was 1.81 µM; with MOLT-4 leukemia, 2.41 µM; in the assay on NCI-H460 lung, 1.82 µM; with CAKI-1 renal, 1.76 µM; in the assay on SF-539 CNS, 1.73 µM. Moreover, the GI50 with HCT-116 colon and with U251 CNS was 1.7 µM in each case. For the same compound, the TGI is 3.17 µM in the assay with HCC-2998 colon; 3.51 µM in the assay on SK-OV-3 ovarian; 5.9 µM with MOLT-4 leukemia; 3.51 µM with NCI-H460 lung; 3.28 µM with CAKI-1 renal; 3.19 µM in the assay with SF-539 CNS. In addition, the TGI was determined as 3.32 µM in the assay with HCT-116 colon and 3.16 µM in the assay with U251 CNS.

As for `COc1ccc(NC(=O)CC(=O)N/N=C/c2ccc(N(CCC#N)S(C)(=O)=O)cc2)cc1`, the TGI in the assay on HCC-2998 colon, in the assay on SK-OV-3 ovarian, in the assay on MOLT-4 leukemia, in the assay on NCI-H460 lung, with CAKI-1 renal and with SF-539 CNS was more than 100 µM throughout. Moreover, the TGI in the assay with HCT-116 colon and with U251 CNS was more than 100 µM throughout.

Turning to `CC(=O)O[C@H]1C(=O)[C@@]2(C)C(C(OC(=O)c3ccccc3)[C@]3(O)CC(OC(=O)[C@H](OC(=O)CCC(=O)O)C(NC(=O)c4ccccc4)c4ccccc4)C(C)=C1C3(C)C)C1(OC(C)=O)COC1C[C@@H]2O` (some centres undefined), the TGI with HCC-2998 colon was > 100 µM and 20.3 µM; in the assay with SK-OV-3 ovarian, more than 100 µM; with MOLT-4 leukemia, 1.05 µM; in the assay on NCI-H460 lung, more than 100 µM; in the assay with CAKI-1 renal, more than 100 µM; in the assay on SF-539 CNS it was < 0.0196 µM and 0.0584 µM. Also, the TGI in the assay on HCT-116 colon and in the assay with U251 CNS was more than 100 µM each time. Further, the GI50 in the assay with SK-OV-3 ovarian is < 0.0159 µM and 0.0343 µM.

On to `NC(=O)NS(=O)(=O)c1ccc(N2N=C(C(F)(F)F)CC2c2cc(C(F)(F)F)cc(C(F)(F)F)c2)cc1` (centres undefined), for which the GI50 was 10 µM with HCC-2998 colon; 7.82 µM in the assay on SK-OV-3 ovarian; 4.73 µM in the assay with MOLT-4 leukemia; 3.47 µM in the assay with NCI-H460 lung; 5 µM with CAKI-1 renal; 11.9 µM with SF-539 CNS. Moreover, the GI50 was 3.07 µM with HCT-116 colon and 3.94 µM with U251 CNS. For the same compound, the TGI was determined as 23.9 µM with HCC-2998 colon; 21.3 µM in the assay with SK-OV-3 ovarian; 55.5 µM in the assay on MOLT-4 leukemia; 11.7 µM in the assay with NCI-H460 lung; 19.5 µM in the assay with CAKI-1 renal; 24.7 µM with SF-539 CNS. Moreover, the TGI came out at 14.7 µM with HCT-116 colon and 15.2 µM in the assay with U251 CNS.

For the compound `NC1=NC(c2ccccc2)CC(c2cc(Cl)ccc2O)=N1` (centres undefined), the TGI was determined as 29.4 µM in the assay with HCC-2998 colon; 33 µM in the assay with SK-OV-3 ovarian; 33.9 µM with MOLT-4 leukemia; 29.3 µM with NCI-H460 lung; 30.1 µM with CAKI-1 renal; 28.5 µM in the assay on SF-539 CNS. For the same compound, the TGI was 27.6 µM with HCT-116 colon and 29.9 µM with U251 CNS.

On to `C[N+]1=C(/C=C/c2ccc(O)c3ncccc23)C(C)(C)c2ccccc21`, for which the GI50 is 2.44 µM with HCC-2998 colon; 2.76 µM in the assay with SK-OV-3 ovarian; 3.14 µM in the assay on MOLT-4 leukemia; 1.77 µM with NCI-H460 lung; 1.11 µM in the assay on CAKI-1 renal; 2.55 µM in the assay on SF-539 CNS. In addition, the GI50 in the assay with HCT-116 colon is 2.86 µM; in the assay on U251 CNS, 2.4 µM. The TGI was 6.73 µM with HCC-2998 colon; 12 µM in the assay with SK-OV-3 ovarian; more than 100 µM in the assay on MOLT-4 leukemia; 3.8 µM in the assay with NCI-H460 lung; 3.83 µM in the assay with CAKI-1 renal; 10.3 µM with SF-539 CNS. For the same compound, the values for the TGI in the assay on HCT-116 colon and with U251 CNS were 10.5 µM and 17.1 µM, respectively.

On to `COc1cc2cc(Oc3ccc(NC(=O)Nc4ccc(Cl)c(C(F)(F)F)c4)cc3)c(C)nc2cc1OCCN1CCOCC1`, for which the GI50 was 3.68 µM in the assay on HCC-2998 colon; 3.34 µM in the assay with SK-OV-3 ovarian; 1.48 µM with MOLT-4 leukemia; 1.65 µM with NCI-H460 lung; 1.8 µM with CAKI-1 renal; 1.68 µM in the assay on SF-539 CNS. Moreover, the GI50 is 1.2 µM in the assay on HCT-116 colon and 1.76 µM in the assay on U251 CNS. For the same compound, the TGI in the assay with HCC-2998 colon worked out at 11.1 µM; in the assay on SK-OV-3 ovarian, 17.5 µM; with MOLT-4 leukemia, 10.5 µM; in the assay on NCI-H460 lung it was 3.62 µM; with CAKI-1 renal, 10.8 µM; in the assay on SF-539 CNS it was 3.26 µM. In addition, the figures for the TGI in the assay on HCT-116 colon and with U251 CNS were 10.8 µM and 3.89 µM, respectively.

With `COC(=O)Nc1nc2ccc(Oc3ccc(NC(=O)Nc4cc(C(F)(F)F)ccc4F)cc3)cc2s1`, the GI50 in the assay with HCC-2998 colon is more than 25 µM; in the assay with SK-OV-3 ovarian, more than 25 µM; in the assay on MOLT-4 leukemia, more than 25 µM; in the assay with NCI-H460 lung it was 10.2 µM; in the assay with CAKI-1 renal, more than 25 µM; in the assay with SF-539 CNS, more than 25 µM. Besides, the GI50 was 8.8 µM in the assay on HCT-116 colon and 13.6 µM in the assay with U251 CNS. Also, the TGI with HCC-2998 colon, with SK-OV-3 ovarian, with MOLT-4 leukemia, with NCI-H460 lung, in the assay with CAKI-1 renal and with SF-539 CNS was more than 25 µM throughout. For the same compound, the TGI in the assay with HCT-116 colon and in the assay with U251 CNS was more than 25 µM in each case.

On to `Cc1cc2c(cc1Cl)SC1=NN(C)S(=O)N1S2(=O)=O` (centres undefined), for which the GI50 with HCC-2998 colon, in the assay with SK-OV-3 ovarian, with MOLT-4 leukemia, in the assay with NCI-H460 lung, in the assay on CAKI-1 renal and in the assay with SF-539 CNS was more than 100 µM in each case. Moreover, the GI50 with HCT-116 colon and in the assay on U251 CNS was more than 100 µM throughout. For the same compound, the TGI with HCC-2998 colon, in the assay with SK-OV-3 ovarian, in the assay on MOLT-4 leukemia, with NCI-H460 lung, in the assay with CAKI-1 renal and in the assay on SF-539 CNS was more than 100 µM throughout. Also, the TGI in the assay on HCT-116 colon and in the assay with U251 CNS was more than 100 µM in each case.

Turning to `N#CSC1CCCCNC1=O` (centres undefined), the TGI in the assay with HCC-2998 colon worked out at 32.4 µM; in the assay with SK-OV-3 ovarian, 21.9 µM; in the assay with MOLT-4 leukemia, 15 µM; with NCI-H460 lung, 28.7 µM; in the assay on CAKI-1 renal, 31.8 µM; with SF-539 CNS it was 26.5 µM. Moreover, the TGI in the assay on HCT-116 colon is more than 100 µM; in the assay with U251 CNS, 42.6 µM.

For `COc1ccc2c(c1)CCCN2c1c2ccccc2nc2ccccc12`, the GI50 with HCC-2998 colon is 0.311 µM; with SK-OV-3 ovarian it was 0.652 µM; in the assay with MOLT-4 leukemia, 0.4 µM; with NCI-H460 lung, 0.358 µM; in the assay with CAKI-1 renal, 0.383 µM; in the assay on SF-539 CNS, 0.251 µM. For the same compound, the GI50 in the assay on HCT-116 colon was 0.334 µM; in the assay with U251 CNS, 0.379 µM. The TGI in the assay on HCC-2998 colon is 1.04 µM; in the assay with SK-OV-3 ovarian, more than 100 µM; with MOLT-4 leukemia, more than 100 µM; in the assay with NCI-H460 lung it was more than 100 µM; with CAKI-1 renal, more than 100 µM; in the assay with SF-539 CNS, 0.741 µM. For the same compound, the results for the TGI in the assay on HCT-116 colon and in the assay with U251 CNS were 14.3 µM and more than 100 µM, respectively.

As to `O=C(O)c1nn(-c2ccccc2-c2n[nH]c(=O)[nH]c2=O)c(=O)[nH]c1=O`, the TGI with HCC-2998 colon, in the assay with SK-OV-3 ovarian, in the assay on MOLT-4 leukemia, with NCI-H460 lung, in the assay with CAKI-1 renal and in the assay with SF-539 CNS was more than 100 µM each time. The TGI in the assay on HCT-116 colon and in the assay with U251 CNS was more than 100 µM each time.
